Data as given in the supplement of paper PMC10307832.

Assays:
Assay in all cases: relative viability (nuclei count vs DMSO), 5 days (fraction); higher = more cells survive
SK-MES-1 = tested on: SK-MES-1
Outline: (§1)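 Lung cancer cell lines were pin-tool dosed in 1536-well plates on the day after seeding, with either a lone drug or a fixed anchor-drug dose plus five library-drug doses (not always all listed) in √10 steps. Nuclei were counted on 4× images after 5 days. Relative viability is the ratio of treated-well to vehicle-well nuclei counts, with each value a median of duplicate plates.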

NCI-H520 = tested on: NCI-H520
Outline: as §1

NCI-H2170 = tested on: NCI-H2170
Outline: as §1

NCI-H1975 = tested on: NCI-H1975
Outline: as §1

EKVX = tested on: EKVX
Outline: as §1

NCI-H1666 = tested on: NCI-H1666
Outline: as §1

SW 900 = tested on: SW 900
Outline: as §1

LOU-NH91 = tested on: LOU-NH91
Outline: as §1

EMC-BAC-2 = tested on: EMC-BAC-2
Outline: as §1

PC-3 [JPC-3] = tested on: PC-3 [JPC-3]
Outline: as §1

NCI-H441 = tested on: NCI-H441
Outline: as §1

NCI-H1755 = tested on: NCI-H1755
Outline: as §1

NCI-H1734 = tested on: NCI-H1734
Outline: as §1

H3255 = tested on: H3255
Outline: as §1

HCC-366 = tested on: HCC-366
Outline: as §1

ChaGo-K-1 = tested on: ChaGo-K-1
Outline: as §1

LK-2 = tested on: LK-2
Outline: as §1

NCI-H596 = tested on: NCI-H596
Outline: as §1

A-427 = tested on: A-427
Outline: as §1

NCI-H23 = tested on: NCI-H23
Outline: as §1

COR-L 105 = tested on: COR-L 105
Outline: as §1

Structure (SMILES): COc1nc(C)cnc1NS(=O)(=O)c1cccnc1-c1ccc(-c2nnco2)cc1 [Zibotentan] + CC(=O)Nc1cccc(-n2c(=O)n(C3CC3)c(=O)c3c(Nc4ccc(I)cc4F)n(C)c(=O)c(C)c32)c1 [Trametinib] (partner 0.02 µM)
- relative viability (SK-MES-1; first compound 0.08 µM): 0.581
- relative viability (SK-MES-1; first compound 0.253 µM): 0.533
- relative viability (SK-MES-1; first compound 0.8 µM): 0.563
- relative viability (SK-MES-1; first compound 2.53 µM): 0.556
- relative viability (NCI-H520; first compound 0.08 µM): 0.803
- relative viability (NCI-H520; first compound 0.253 µM): 0.704
- relative viability (NCI-H520; first compound 0.8 µM): 0.631
- relative viability (NCI-H520; first compound 2.53 µM): 0.79
- relative viability (NCI-H2170; first compound 0.08 µM): 0.966
- relative viability (NCI-H2170; first compound 0.253 µM): 0.897
- relative viability (NCI-H2170; first compound 0.8 µM): 0.903
- relative viability (NCI-H2170; first compound 2.53 µM): 0.908
- relative viability (NCI-H1975; first compound 0.08 µM): 0.336
- relative viability (NCI-H1975; first compound 0.253 µM): 0.355
- relative viability (NCI-H1975; first compound 0.8 µM): 0.358
- relative viability (NCI-H1975; first compound 2.53 µM): 0.34
- relative viability (EKVX; first compound 0.08 µM): 0.33
- relative viability (EKVX; first compound 0.253 µM): 0.364
- relative viability (EKVX; first compound 0.8 µM): 0.315
- relative viability (EKVX; first compound 2.53 µM): 0.321
- relative viability (NCI-H1666; first compound 0.08 µM): 0.882
- relative viability (NCI-H1666; first compound 0.253 µM): 0.779
- relative viability (NCI-H1666; first compound 0.8 µM): 0.821
- relative viability (NCI-H1666; first compound 2.53 µM): 0.863
- relative viability (SW 900; first compound 0.08 µM): 0.893
- relative viability (SW 900; first compound 0.253 µM): 0.817
- relative viability (SW 900; first compound 0.8 µM): 0.846
- relative viability (SW 900; first compound 2.53 µM): 0.751
- relative viability (LOU-NH91; first compound 0.08 µM): 0.777
- relative viability (LOU-NH91; first compound 0.253 µM): 0.814
- relative viability (LOU-NH91; first compound 0.8 µM): 0.817
- relative viability (LOU-NH91; first compound 2.53 µM): 0.816
- relative viability (EMC-BAC-2; first compound 0.08 µM): 0.952
- relative viability (EMC-BAC-2; first compound 0.8 µM): 0.994
- relative viability (EMC-BAC-2; first compound 2.53 µM): 0.914
- relative viability (PC-3 [JPC-3]; first compound 0.08 µM): 0.628
- relative viability (PC-3 [JPC-3]; first compound 0.253 µM): 0.508
- relative viability (PC-3 [JPC-3]; first compound 0.8 µM): 0.723
- relative viability (PC-3 [JPC-3]; first compound 2.53 µM): 0.715
- relative viability (NCI-H441; first compound 0.08 µM): 0.454
- relative viability (NCI-H441; first compound 0.253 µM): 0.408
- relative viability (NCI-H441; first compound 0.8 µM): 0.544
- relative viability (NCI-H441; first compound 2.53 µM): 0.471
- relative viability (NCI-H1755; first compound 0.08 µM): 0.737
- relative viability (NCI-H1755; first compound 0.253 µM): 0.745
- relative viability (NCI-H1755; first compound 0.8 µM): 0.797
- relative viability (NCI-H1755; first compound 2.53 µM): 0.792
- relative viability (NCI-H1734; first compound 0.08 µM): 0.721
- relative viability (NCI-H1734; first compound 0.253 µM): 0.705
- relative viability (NCI-H1734; first compound 0.8 µM): 0.647
- relative viability (NCI-H1734; first compound 2.53 µM): 0.733
- relative viability (H3255; first compound 0.08 µM): 0.659
- relative viability (H3255; first compound 0.253 µM): 0.607
- relative viability (H3255; first compound 0.8 µM): 0.667
- relative viability (H3255; first compound 2.53 µM): 0.626
- relative viability (HCC-366; first compound 0.08 µM): 0.378
- relative viability (HCC-366; first compound 0.253 µM): 0.318
- relative viability (HCC-366; first compound 0.8 µM): 0.361
- relative viability (HCC-366; first compound 2.53 µM): 0.383
- relative viability (ChaGo-K-1; first compound 0.08 µM): 0.886
- relative viability (ChaGo-K-1; first compound 0.253 µM): 0.899
- relative viability (ChaGo-K-1; first compound 0.8 µM): 0.888
- relative viability (ChaGo-K-1; first compound 2.53 µM): 0.886
- relative viability (LK-2; first compound 0.08 µM): 0.881
- relative viability (LK-2; first compound 0.253 µM): 0.793
- relative viability (LK-2; first compound 0.8 µM): 0.83
- relative viability (LK-2; first compound 2.53 µM): 0.703
- relative viability (NCI-H596; first compound 0.08 µM): 0.801
- relative viability (NCI-H596; first compound 0.253 µM): 0.8
- relative viability (NCI-H596; first compound 0.8 µM): 0.791
- relative viability (NCI-H596; first compound 2.53 µM): 0.714
- relative viability (A-427; first compound 0.08 µM): 0.813
- relative viability (A-427; first compound 0.253 µM): 0.72
- relative viability (A-427; first compound 0.8 µM): 0.845
- relative viability (A-427; first compound 2.53 µM): 0.83
- relative viability (NCI-H23; first compound 0.08 µM): 0.403
- relative viability (NCI-H23; first compound 0.253 µM): 0.305
- relative viability (NCI-H23; first compound 0.8 µM): 0.349
- relative viability (NCI-H23; first compound 2.53 µM): 0.48
- relative viability (COR-L 105; first compound 0.08 µM): 0.403
- relative viability (COR-L 105; first compound 0.253 µM): 0.411
- relative viability (COR-L 105; first compound 0.8 µM): 0.482
- relative viability (COR-L 105; first compound 2.53 µM): 0.475
